Experimental data from patent US8013153B2, “Substituted pyrimidine kinase inhibitors” (Janssen Pharmaceutica, N.V., priority 2006, dated 2011).
Read-outs that look alike come from different tables or passages of the source.

What was measured:
CDK1:Cyclin-B = target: T1, CDK1:Cyclin-B (Homo sapiens, UniProt P06493); assay: CDK1 Screening Assay; format: biochemical
T1 construct: purchased New England Biolabs, Beverly, Mass; 6020; host or cells: insect cells

HER2 cytoplasmic domain = target: T2, HER2 cytoplasmic domain (Homo sapiens, UniProt P04626); assay: HER2 Kinase Screening Assay; format: biochemical; conditions: > means no observed 50% inhibition at the indicated test concentration; ~ means approximately 50% inhibition at that concentration
T2 construct: polyhistidine (N)
T2 sequence (P04626 676-1255 limits assumed): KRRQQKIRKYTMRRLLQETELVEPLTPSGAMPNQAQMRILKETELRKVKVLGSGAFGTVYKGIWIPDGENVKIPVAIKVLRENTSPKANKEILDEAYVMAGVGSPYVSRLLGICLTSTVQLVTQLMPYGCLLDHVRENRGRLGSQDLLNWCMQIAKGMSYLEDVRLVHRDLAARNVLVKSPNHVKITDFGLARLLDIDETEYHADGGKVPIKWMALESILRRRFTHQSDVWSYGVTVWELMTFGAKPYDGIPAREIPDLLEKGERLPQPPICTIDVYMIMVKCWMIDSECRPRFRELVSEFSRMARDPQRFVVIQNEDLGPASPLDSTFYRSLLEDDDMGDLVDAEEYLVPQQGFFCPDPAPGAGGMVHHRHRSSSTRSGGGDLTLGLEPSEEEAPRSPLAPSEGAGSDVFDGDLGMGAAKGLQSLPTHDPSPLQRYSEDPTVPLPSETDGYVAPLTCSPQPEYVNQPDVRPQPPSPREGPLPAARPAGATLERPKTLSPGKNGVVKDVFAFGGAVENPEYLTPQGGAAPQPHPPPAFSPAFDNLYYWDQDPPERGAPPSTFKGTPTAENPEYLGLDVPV

A375 malignant melanoma = assay: Inhibition of in vitro cell proliferation (A375); format: cell-based, human; conditions: Homo sapiens, A-375, 14C-thymidine incorporation;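 further: cells plated for 24 h, given compound for 24 h, then labelled with 14C-thymidine for another 24 h, with DMSO-only wells as control and counts read by scintillation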
[1] = target: T3, rat VEGF-R2 kinase domain (Rattus norvegicus, UniProt O08775); assay: VEGF-R2 Screening Assay; format: biochemical
T3 construct: amino acids 786-1343 of the rat VEGF-R2 kinase domain; polyhistidine (N)
T3 sequence (O08775 786-1343): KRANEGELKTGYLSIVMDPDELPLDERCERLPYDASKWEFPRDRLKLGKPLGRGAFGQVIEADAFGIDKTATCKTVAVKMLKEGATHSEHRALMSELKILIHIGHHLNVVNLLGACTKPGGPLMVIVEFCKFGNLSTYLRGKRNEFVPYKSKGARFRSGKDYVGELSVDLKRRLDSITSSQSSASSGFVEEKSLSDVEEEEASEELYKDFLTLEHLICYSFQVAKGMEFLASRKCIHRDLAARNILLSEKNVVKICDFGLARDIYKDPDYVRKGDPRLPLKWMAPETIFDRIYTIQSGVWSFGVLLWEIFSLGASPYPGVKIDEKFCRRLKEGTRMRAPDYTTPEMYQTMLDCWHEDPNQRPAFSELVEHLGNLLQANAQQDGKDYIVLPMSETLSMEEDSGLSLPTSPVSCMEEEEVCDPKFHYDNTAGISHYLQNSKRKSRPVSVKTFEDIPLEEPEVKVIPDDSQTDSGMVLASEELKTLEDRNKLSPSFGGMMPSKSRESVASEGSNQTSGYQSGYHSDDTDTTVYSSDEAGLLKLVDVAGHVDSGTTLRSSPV

HCT-116 colon carcinoma = assay: Inhibition of in vitro cell proliferation (HCT116); format: cell-based, human; conditions: Homo sapiens, HCT-116, 14C-thymidine incorporation;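 further: cells exposed to compound for 24 h, then 14C-thymidine added for a further 24 h and its uptake into DNA counted by scintillation, DMSO-only wells as control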
[2] = test system: HeLa cervical adenocarcinoma; assay: Inhibition of in vitro cell proliferation (HeLa); format: cell-based, human; conditions: Homo sapiens, 14C-thymidine incorporation;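 further: cells exposed to compound for 24 h, then labelled 24 h with methyl 14C-thymidine, with uptake into DNA counted by scintillation against DMSO-only control wells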
murine Aurora-A = target: T4, murine Aurora-A (Mus musculus, UniProt P97477); assay: Aurora-A Screening Assay; format: biochemical
T4 construct: replaced with the full length protein encoding the murine Aurora-A; made in house; host or cells: sf9 insect cells
T4 sequence (P97477 1-395): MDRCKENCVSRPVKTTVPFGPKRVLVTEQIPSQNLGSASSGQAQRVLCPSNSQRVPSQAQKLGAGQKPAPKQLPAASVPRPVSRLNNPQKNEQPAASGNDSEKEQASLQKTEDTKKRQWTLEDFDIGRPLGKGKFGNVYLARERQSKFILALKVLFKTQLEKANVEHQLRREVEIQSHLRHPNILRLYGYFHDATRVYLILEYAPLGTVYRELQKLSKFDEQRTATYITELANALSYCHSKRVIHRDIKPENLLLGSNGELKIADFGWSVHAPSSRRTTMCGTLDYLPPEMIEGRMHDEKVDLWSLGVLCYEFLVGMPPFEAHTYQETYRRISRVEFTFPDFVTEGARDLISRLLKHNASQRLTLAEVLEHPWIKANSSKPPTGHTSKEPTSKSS

[3] = > means no observed 50% inhibition at the indicated test concentration, ~ means approximately 50% inhibition at that concentration, read-out: IC50 VEGF-R2

T1 sequence (P06493 whole entry): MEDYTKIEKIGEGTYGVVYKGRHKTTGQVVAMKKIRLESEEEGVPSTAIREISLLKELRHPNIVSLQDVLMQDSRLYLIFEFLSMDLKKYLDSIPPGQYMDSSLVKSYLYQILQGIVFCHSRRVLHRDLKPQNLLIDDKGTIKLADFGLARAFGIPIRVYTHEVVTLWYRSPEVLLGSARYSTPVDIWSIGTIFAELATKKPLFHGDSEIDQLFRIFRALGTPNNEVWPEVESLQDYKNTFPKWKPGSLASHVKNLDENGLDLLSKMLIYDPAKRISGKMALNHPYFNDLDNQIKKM
T1 sequence (P14635 whole entry partner): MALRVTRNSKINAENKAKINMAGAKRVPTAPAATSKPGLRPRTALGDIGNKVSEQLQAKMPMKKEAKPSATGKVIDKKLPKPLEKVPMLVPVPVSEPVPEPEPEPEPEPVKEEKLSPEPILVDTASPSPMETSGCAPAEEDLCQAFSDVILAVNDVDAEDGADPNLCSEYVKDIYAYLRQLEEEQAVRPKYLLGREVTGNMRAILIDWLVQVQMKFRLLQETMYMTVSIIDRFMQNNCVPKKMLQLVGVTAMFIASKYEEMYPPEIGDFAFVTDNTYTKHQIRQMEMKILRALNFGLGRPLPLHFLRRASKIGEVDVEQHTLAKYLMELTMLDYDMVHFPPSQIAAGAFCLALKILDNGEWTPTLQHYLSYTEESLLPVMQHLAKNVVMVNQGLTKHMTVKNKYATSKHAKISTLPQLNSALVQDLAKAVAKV

Row | SMILES | IC50 (CDK1:Cyclin-B) [µM] | IC50 (HER2 cytoplasmic domain) [µM] | IC50 (A375 malignant melanoma) [µM] | IC50 [1, 3] [µM] | IC50 (HCT-116 colon carcinoma) [µM] | IC50 [2] [µM] | IC50 (murine Aurora-A) [µM] | IC50 ([1]; IC50 VEGF-R2) [µM]
1 | CON=Cc1c(N)ncnc1Oc1ccc(NC(=O)NCCN(C)C)c(Cl)c1 [Cpd 82, 1-{4-[6-amino-5-(methoxyimino-methyl)-pyrimidin-4-yloxy]-2-chloro-phenyl}-3-(2-dimethylamino-ethyl)-urea] | > 100 | > 10 | > 10 | 0.285 | > 10 | > 10 | > 100 | –
2 | CON=Cc1c(N)ncnc1Oc1ccc(NC(=O)NCCCO)c(Cl)c1 [Cpd 83, 1-{4-[6-amino-5-(methoxyimino-methyl)-pyrimidin-4-yloxy]-2-chloro-phenyl}-3-(3-hydroxy-propyl)-urea] | > 100 | > 10 | 3.94 | – | 3.78 | 4.18 | > 100 | 0.4
3 | CON=Cc1c(N)ncnc1Oc1ccc(NC(=O)NCCCCN2CCCC2)c(Cl)c1 [Cpd 84, 1-{4-[6-amino-5-(methoxyimino-methyl)-pyrimidin-4-yloxy]-2-chloro-phenyl}-3-(4-pyrrolidin-1-yl-butyl)-urea] | > 100 | > 10 | > 1 | 0.759 | > 10 | > 10 | > 10 | –
4 | CON=Cc1c(N)ncnc1Oc1ccc(NC(=O)NC2CC2)c(Cl)c1 [Cpd 85, 1-{4-[6-amino-5-(methoxyimino-methyl)-pyrimidin-4-yloxy]-2-chloro-phenyl}-3-cyclopropyl-urea] | > 100 | > 100 | > 10 | 0.029 | > 100 | > 100 | > 100 | –
5 | CON=Cc1c(N)ncnc1Oc1ccc(NC(=O)Nc2ccccn2)c(Cl)c1 [Cpd 86, 1-{4-[6-amino-5-(methoxyimino-methyl)-pyrimidin-4-yloxy]-2-chloro-phenyl}-3-pyridin-2-yl-urea] | > 100 | > 100 | 6.25 | 0.034 | > 10 | > 10 | > 100 | –
6 | CON=Cc1c(N)ncnc1Oc1ccc(NC(=O)Nc2cccnc2)c(Cl)c1 [Cpd 87, 1-{4-[6-amino-5-(methoxyimino-methyl)-pyrimidin-4-yloxy]-2-chloro-phenyl}-3-pyridin-3-yl-urea] | > 100 | > 1 | 3.41 | 0.01 | 4.67 | 4.63 | > 100 | –
7 | CON=Cc1c(N)ncnc1Oc1ccc(NC(=O)Nc2ccncc2)c(Cl)c1 [Cpd 88, 1-{4-[6-amino-5-(methoxyimino-methyl)-pyrimidin-4-yloxy]-2-chloro-phenyl}-3-pyridin-4-yl-urea] | > 100 | > 10 | 4.34 | – | 4.69 | 7.39 | > 10 | 0.011
8 | CON=Cc1c(N)ncnc1Oc1ccc(NC(=O)Nc2nc(C)cs2)c(Cl)c1 [Cpd 89, 1-{4-[6-amino-5-(methoxyimino-methyl)-pyrimidin-4-yloxy]-2-chloro-phenyl}-3-(4-methyl-thiazol-2-yl)-urea] | > 100 | > 1 | 2.19 | 0.0039 | > 10 | > 10 | > 100 | –
9 | CON=Cc1c(N)ncnc1Oc1ccc(NC(=O)Nc2ncc(C)s2)c(Cl)c1 [Cpd 90, 1-{4-[6-amino-5-(methoxyimino-methyl)-pyrimidin-4-yloxy]-2-chloro-phenyl}-3-(5-methyl-thiazol-2-yl)-urea] | > 100 | > 1 | > 10 | 0.037 | > 10 | > 100 | > 10 | –
10 | CON=Cc1c(N)ncnc1Oc1ccc(NC(=O)Nc2nccs2)c(Cl)c1 [Cpd 91, 1-{4-[6-amino-5-(methoxyimino-methyl)-pyrimidin-4-yloxy]-2-chloro-phenyl}-3-thiazol-2-yl-urea] | > 100 | > 1 | 0.929 | 0.0034 | 3.04 | 3.24 | > 10 | –
